Patent US12371428B2 (Exelixis, Inc., priority 2019, dated 2025)

Assays:
[1] = molecular target: KDR (phospho-KDR, VEGF165-stimulated HUVEC cells) (Homo sapiens (Human), UniProt P35968); test: KDR autophosphorylation ELISA in HUVEC cells (Example G); format: cell-based; details: cellular activity; KDR autophosphorylation ELISA in HUVEC cells
Outline: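 First, endothelial cells were cultured a day, then kept without serum for another day. Next came 1 h with serially diluted compound, a brief 5 min VEGF165 stimulus (100 ng/mL), rapid lysis, and ELISA detection of receptor phosphorylation relative to stimulated and non-stimulated controls.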

[2] = molecular target: Human MET (residues 956-1390) (Homo sapiens (Human), UniProt P08581); test: Human Met kinase assay, HTRF KinEase (Example D-2); format: biochemical; details: protocol of Example D-2 (other compounds); read-out: c-Met IC50
Outline: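 HTRF KinEase assay on MET residues 956-1390 (0.1 ng/well) in buffer with 5 mM MgCl2, 1 mM DTT and 1 mM MnCl2, with biotinylated peptide substrate, ATP at Km, 10 compound concentrations and 3% DMSO final, run 40 min at room temperature. The […] signal was normalized to DMSO and to 1 μM reference compound, and IC50 came from a 4-parameter logistic fit.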

Sequence of Human MET (residues 956-1390) (P08581 956-1390): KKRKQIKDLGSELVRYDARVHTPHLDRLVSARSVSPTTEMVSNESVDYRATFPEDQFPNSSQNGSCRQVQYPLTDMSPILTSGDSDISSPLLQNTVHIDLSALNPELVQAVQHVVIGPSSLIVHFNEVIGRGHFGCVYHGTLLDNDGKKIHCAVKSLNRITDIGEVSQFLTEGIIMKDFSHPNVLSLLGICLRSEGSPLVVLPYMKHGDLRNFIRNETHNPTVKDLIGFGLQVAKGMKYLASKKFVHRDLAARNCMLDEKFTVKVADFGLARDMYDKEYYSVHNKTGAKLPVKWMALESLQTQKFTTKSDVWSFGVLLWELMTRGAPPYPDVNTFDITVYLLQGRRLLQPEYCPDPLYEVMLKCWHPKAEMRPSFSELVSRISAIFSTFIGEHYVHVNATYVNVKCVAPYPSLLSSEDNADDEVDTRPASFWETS
Sequence of KDR (phospho-KDR, VEGF165-stimulated HUVEC cells) (P35968 20-1356): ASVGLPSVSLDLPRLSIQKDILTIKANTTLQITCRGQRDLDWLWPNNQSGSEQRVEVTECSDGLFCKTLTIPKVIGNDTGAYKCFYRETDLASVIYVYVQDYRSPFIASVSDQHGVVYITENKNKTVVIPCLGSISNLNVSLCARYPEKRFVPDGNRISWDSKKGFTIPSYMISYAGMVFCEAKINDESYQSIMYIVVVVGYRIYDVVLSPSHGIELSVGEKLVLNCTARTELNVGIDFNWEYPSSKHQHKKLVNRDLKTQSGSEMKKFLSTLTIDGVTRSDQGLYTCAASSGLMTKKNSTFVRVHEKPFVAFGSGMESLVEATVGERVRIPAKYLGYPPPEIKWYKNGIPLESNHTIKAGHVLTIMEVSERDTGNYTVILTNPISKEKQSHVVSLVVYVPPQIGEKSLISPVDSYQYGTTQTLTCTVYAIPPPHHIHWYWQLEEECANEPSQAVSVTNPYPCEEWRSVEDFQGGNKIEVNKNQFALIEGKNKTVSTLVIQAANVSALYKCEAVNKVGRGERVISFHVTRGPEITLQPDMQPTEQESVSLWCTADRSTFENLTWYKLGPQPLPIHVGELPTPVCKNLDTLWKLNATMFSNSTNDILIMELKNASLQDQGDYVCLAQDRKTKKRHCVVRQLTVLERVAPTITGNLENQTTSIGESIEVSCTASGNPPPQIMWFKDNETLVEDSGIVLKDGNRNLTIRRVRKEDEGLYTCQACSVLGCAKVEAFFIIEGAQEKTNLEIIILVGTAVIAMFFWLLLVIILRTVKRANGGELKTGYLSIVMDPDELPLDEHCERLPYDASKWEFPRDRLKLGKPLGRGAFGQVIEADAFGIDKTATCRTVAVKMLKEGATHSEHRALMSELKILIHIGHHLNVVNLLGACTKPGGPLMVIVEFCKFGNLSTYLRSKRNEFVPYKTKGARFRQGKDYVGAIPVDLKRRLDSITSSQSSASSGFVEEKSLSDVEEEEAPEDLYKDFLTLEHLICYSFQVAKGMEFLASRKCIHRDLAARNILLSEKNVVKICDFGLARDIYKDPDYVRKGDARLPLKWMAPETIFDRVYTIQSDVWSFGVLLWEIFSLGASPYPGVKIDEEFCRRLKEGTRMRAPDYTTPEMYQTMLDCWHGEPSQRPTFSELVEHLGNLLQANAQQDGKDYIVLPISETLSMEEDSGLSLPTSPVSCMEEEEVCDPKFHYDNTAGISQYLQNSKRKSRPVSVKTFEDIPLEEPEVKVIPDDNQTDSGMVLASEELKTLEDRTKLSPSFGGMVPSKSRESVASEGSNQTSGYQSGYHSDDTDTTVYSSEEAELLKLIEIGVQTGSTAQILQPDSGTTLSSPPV

SMILES: COc1cnc2c(Oc3ccc(NC(=O)c4ccc(C)n(-c5ccc(F)cc5C)c4=O)cc3)ccnc2c1 [Compound 226, 1-(4-Fluoro-2-methylphenyl)-N-[4-[(7-methoxy-1,5-naphthyridin-4-yl)oxy]phenyl]-6-methyl-2-oxopyridine-3-carboxamide]
- IC50 [1]: < 100 nM
- IC50 [2]: < 100 nM

SMILES: COCCOc1nc2c(Oc3ccc(NC(=O)c4ccc(C)n(-c5ccc(F)cc5)c4=O)cc3F)ccnc2cc1OC [Compound 227, N-[3-Fluoro-4-[[7-methoxy-6-(2-methoxyethoxy)-1,5-naphthyridin-4-yl]oxy]phenyl]-1-(4-fluorophenyl)-6-methyl-2-oxopyridine-3-carboxamide]
- IC50 [1]: < 100 nM
- IC50 [2]: < 100 nM

SMILES: COCCOc1nc2c(Oc3ccc(NC(=O)c4cn(C)c(CO)c(-c5ccc(F)cc5)c4=O)cc3F)ccnc2cc1OC [Compound 228, N-[3-Fluoro-4-[[7-methoxy-6-(2-methoxyethoxy)-1,5-naphthyridin-4-yl]oxy]phenyl]-5-(4-fluorophenyl)-6-(hydroxymethyl)-1-methyl-4-oxopyridine-3-carboxamide]
- IC50 [1]: > 300 nM
- IC50 [2]: < 100 nM

SMILES: COc1cc2nccc(Oc3ccc(NC(=O)c4ccc(C)n(-c5ccc(F)cc5)c4=O)cc3)c2nc1OC [Compound 229, N-[4-[(6,7-Dimethoxy-1,5-naphthyridin-4-yl)oxy]phenyl]-1-(4-fluorophenyl)-6-methyl-2-oxopyridine-3-carboxamide]
- IC50 [1]: < 100 nM
- IC50 [2]: < 100 nM

SMILES: COc1ccc2nccc(Oc3ccc(NC(=O)c4n[nH]c(C)c(-c5ccc(F)cc5C)c4=O)cc3F)c2n1 [Compound 230, N-[3-Fluoro-4-[(6-methoxy-1,5-naphthyridin-4-yl)oxy]phenyl]-5-(4-fluoro-2-methylphenyl)-6-methyl-4-oxo-1H-pyridazine-3-carboxamide]
- IC50 [1]: 100 to 300 nM
- IC50 [2]: < 100 nM

SMILES: COc1ccc2nccc(Oc3ccc(NC(=O)c4cnc(CO)c(-c5ccc(F)cc5)c4O)cc3F)c2n1 [Compound 231, N-[3-Fluoro-4-[(6-methoxy-1,5-naphthyridin-4-yl)oxy]phenyl]-5-(4-fluorophenyl)-4-hydroxy-6-(hydroxymethyl)pyridine-3-carboxamide]
- IC50 [1]: < 100 nM
- IC50 [2]: < 100 nM

SMILES: COc1ccc2nccc(Oc3ccc(NC(=O)c4cnc(C)n(-c5ccc(F)cc5)c4=O)cc3F)c2n1 [Compound 232, N-[3-Fluoro-4-[(6-methoxy-1,5-naphthyridin-4-yl)oxy]phenyl]-1-(4-fluorophenyl)-2-methyl-6-oxopyrimidine-5-carboxamide]
- IC50 [1]: 100 to 300 nM
- IC50 [2]: < 100 nM

SMILES: COc1ccc2nccc(Oc3ccc(NC(=O)c4c(C)nc(C)n(-c5ccc(F)cc5)c4=O)cc3F)c2n1 [Compound 233, N-[3-Fluoro-4-[(6-methoxy-1,5-naphthyridin-4-yl)oxy]phenyl]-1-(4-fluorophenyl)-2,4-dimethyl-6-oxopyrimidine-5-carboxamide]
- IC50 [1]: < 100 nM
- IC50 [2]: 100 to 300 nM

SMILES: COc1ccc2nccc(Oc3ccc(NC(=O)c4c(C)ncn(-c5ccc(F)cc5)c4=O)cc3F)c2n1 [Compound 234, N-[3-Fluoro-4-[(6-methoxy-1,5-naphthyridin-4-yl)oxy]phenyl]-1-(4-fluorophenyl)-4-methyl-6-oxopyrimidine-5-carboxamide]
- IC50 [1]: 100 to 300 nM
- IC50 [2]: > 300 nM

SMILES: COc1cc2nccc(Oc3ccc(NC(=O)c4c(C)ncc(-c5ccc(F)cc5)c4O)cc3)c2nc1OC [Compound 235, N-[4-[(6,7-Dimethoxy-1,5-naphthyridin-4-yl)oxy]phenyl]-5-(4-fluorophenyl)-4-hydroxy-2-methylpyridine-3-carboxamide]
- IC50 [1]: < 100 nM
- IC50 [2]: < 100 nM

SMILES: COc1cnc2c(Oc3ccc(NC(=O)c4c(C)ncc(-c5ccc(F)cc5)c4O)cc3)ccnc2c1 [Compound 236, 5-(4-Fluorophenyl)-4-hydroxy-N-[4-[(7-methoxy-1,5-naphthyridin-4-yl)oxy]phenyl]-2-methylpyridine-3-carboxamide]
- IC50 [1]: < 100 nM
- IC50 [2]: < 100 nM

SMILES: COc1cc2nccc(Oc3ccc(NC(=O)c4c(C)ncc(-c5ccc(F)cc5)c4O)cc3F)c2nc1OC [Compound 237, N-[4-[(6,7-Dimethoxy-1,5-naphthyridin-4-yl)oxy]-3-fluorophenyl]-5-(4-fluorophenyl)-4-hydroxy-2-methylpyridine-3-carboxamide]
- IC50 [1]: < 100 nM
- IC50 [2]: < 100 nM

SMILES: COc1cnc2c(Oc3ccc(NC(=O)c4c(C)n(C)cc(-c5ccc(F)cc5)c4=O)cc3F)ccnc2c1 [Compound 239, N-[3-Fluoro-4-[(7-methoxy-1,5-naphthyridin-4-yl)oxy]phenyl]-5-(4-fluorophenyl)-1,2-dimethyl-4-oxopyridine-3-carboxamide]
- IC50 [1]: > 300 nM
- IC50 [2]: < 100 nM

SMILES: CCn1cc(-c2ccc(F)cc2)c(=O)c(C(=O)Nc2ccc(Oc3ccnc4cc(OC)cnc34)c(F)c2)c1C [Compound 240, 1-Ethyl-N-[3-fluoro-4-[(7-methoxy-1,5-naphthyridin-4-yl)oxy]phenyl]-5-(4-fluorophenyl)-2-methyl-4-oxopyridine-3-carboxamide]
- IC50 [1]: > 300 nM
- IC50 [2]: < 100 nM

SMILES: COc1cnc2c(Oc3ccc(NC(=O)c4cnc(C(F)(F)F)c(-c5ccc(F)cc5)c4O)cc3F)ccnc2c1 [Compound 241, N-[3-Fluoro-4-[(7-methoxy-1,5-naphthyridin-4-yl)oxy]phenyl]-5-(4-fluorophenyl)-4-hydroxy-6-(trifluoromethyl)pyridine-3-carboxamide]
- IC50 [1]: > 300 nM
- IC50 [2]: 100 to 300 nM

SMILES: COc1ccc2nccc(Oc3ccc(NC(=O)c4c(C)ncc(-c5ccc(F)cc5)c4O)cc3F)c2n1 [Compound 242, N-[3-Fluoro-4-[(6-methoxy-1,5-naphthyridin-4-yl)oxy]phenyl]-5-(4-fluorophenyl)-4-hydroxy-2-methylpyridine-3-carboxamide]
- IC50 [1]: < 100 nM
- IC50 [2]: < 100 nM

SMILES: COc1ccc2nccc(Oc3ccc(NC(=O)c4c(C)n(C)cc(-c5ccc(F)cc5)c4=O)cc3F)c2n1 [Compound 243, N-[3-Fluoro-4-[(6-methoxy-1,5-naphthyridin-4-yl)oxy]phenyl]-5-(4-fluorophenyl)-1,2-dimethyl-4-oxopyridine-3-carboxamide]
- IC50 [1]: > 300 nM
- IC50 [2]: > 300 nM

SMILES: COc1cnc2c(Oc3ccc(NC(=O)c4n[nH]c(C)c(-c5ccc(F)cc5)c4=O)cc3)ccnc2c1 [Compound 245, 5-(4-Fluorophenyl)-N-[4-[(7-methoxy-1,5-naphthyridin-4-yl)oxy]phenyl]-6-methyl-4-oxo-1H-pyridazine-3-carboxamide]
- IC50 [1]: < 100 nM
- IC50 [2]: < 100 nM

SMILES: COc1cnc2c(Oc3ccc(NC(=O)c4n[nH]c(C)c(-c5ccc(F)cc5)c4=O)cc3F)ccnc2c1 [Compound 246, N-[3-Fluoro-4-[(7-methoxy-1,5-naphthyridin-4-yl)oxy]phenyl]-5-(4-fluorophenyl)-6-methyl-4-oxo-1H-pyridazine-3-carboxamide]
- IC50 [1]: < 100 nM
- IC50 [2]: < 100 nM

SMILES: COc1cc2nccc(Oc3ccc(NC(=O)c4n[nH]c(C)c(-c5ccc(F)cc5C)c4=O)cc3)c2nc1OC [Compound 247, N-[4-[(6,7-Dimethoxy-1,5-naphthyridin-4-yl)oxy]phenyl]-5-(4-fluoro-2-methylphenyl)-6-methyl-4-oxo-1H-pyridazine-3-carboxamide]
- IC50 [1]: < 100 nM
- IC50 [2]: < 100 nM
